The target of the test is T1, CCR2 (Homo sapiens, UniProt P41597).
T1 construct: Membranes were prepared from THP-1 cells; endogenous in cells; host or cells: THP-1 cells (membrane preparation)
T1 sequence (P41597 1-360 isoform P41597-2): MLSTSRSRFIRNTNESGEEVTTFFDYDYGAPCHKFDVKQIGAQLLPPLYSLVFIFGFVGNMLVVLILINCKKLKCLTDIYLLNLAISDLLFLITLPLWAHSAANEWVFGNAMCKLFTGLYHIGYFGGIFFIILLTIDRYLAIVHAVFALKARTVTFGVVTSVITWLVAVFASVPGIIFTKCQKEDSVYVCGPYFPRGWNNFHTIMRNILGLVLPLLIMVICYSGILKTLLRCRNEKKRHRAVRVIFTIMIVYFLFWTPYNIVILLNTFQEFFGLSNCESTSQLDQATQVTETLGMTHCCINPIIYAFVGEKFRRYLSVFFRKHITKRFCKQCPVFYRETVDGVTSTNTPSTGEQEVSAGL
As to the kind of experiment: CCR2 receptor membrane binding assay ([125I]MCP-1, THP-1 cell membranes, SPA beads). The note with it: for Ki: dissociation constant hKi, [125I]MCP-1 binding to THP-1 membranes; for remaining activity at 10 µM: @ 10 μM test compound, THP-1 membranes, read-out: CCR2 % ctrl @ 10 μM. The essentials: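 hKi was derived by iterative law-of-mass-action fitting of scintillation counts read at 8 h. Compound (1% DMSO final) competed with ca. 25000 cpm [125I]MCP-1 for THP-1 membranes bound to WGA-PVT beads. Buffer: 25 mM HEPES pH 7.2, 5 mM MgCl2, 0.5 mM CaCl2, 0.2% BSA.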

This is an account of results in US8835440B2, “Cyclic pyrimidin-4-carboxamides as CCR2 receptor antagonists for treatment of inflammation, asthma and COPD” (Boehringer Ingelheim International GmbH, priority 2008, dated 2014).

The structures appear in SMILES notation.

As usually defined, the Ki is the equilibrium dissociation constant of an inhibitor or competing ligand from its target. For `Cc1c(NC[C@@H]2CC[C@H](c3ccc(C(F)(F)F)cc3)O2)ncnc1C(=O)N1CCC(N2CCC(N(C)S(C)(=O)=O)CC2)CC1` [Example 159la], the Ki worked out at 0.019 µM.
Consider `Cc1c(NCc2cccc(-c3ccccc3)c2)ncnc1C(=O)N1CCC(N2CCC(O)C2)CC1` (centres unmarked) [Example 239], for which the remaining activity at 10 µM was 33% and the Ki is 2.32 µM.
On to `Cc1c(NCc2ccc(Cl)c(Cl)c2)ncnc1C(=O)N1CCC(N2CCC(NC(N)=O)CC2)CC1` [Example 187], for which the remaining activity at 10 µM came to 15% and the Ki was 0.256 µM.
As to `Cc1c(NCC2COc3ccc(Cl)cc3C2)ncnc1C(=O)N1CCC(N2CCC(N(C)S(C)(=O)=O)CC2)CC1` (centres unmarked) [Example 159sb], the affinity corresponds to a Ki of 0.021 µM.
`Cc1c(NCC2CCCCC2)ncnc1C(=O)N1CCC(N2CCC(N(C)S(C)(=O)=O)CC2)CC1` [Example 159e]: the Ki is 0.028 µM.
As for `Cc1c(NCc2ccc(C(C)(C)C)cc2)ncnc1C(=O)N1CCC(N2CCC(c3ccncc3)CC2)CC1` [Example 201], the remaining activity at 10 µM was 6% and the affinity, expressed as Ki, was 0.101 µM.
For `Cc1ccc(CNc2ncnc(C(=O)N3CCC(N4CCC(O)CC4)CC3)c2C)cc1F` [Example 120] the same measures were 30% and 0.499 µM.
In turn, `Cc1c(NCC2CCc3ccccc32)ncnc1C(=O)N1CCC(N2CCC(N(C)S(C)(=O)=O)CC2)CC1` (centres unmarked) [Example 159x] returned a Ki of 0.147 µM.
`Cc1nc(NC[C@@H]2CCC[C@H](c3ccc(C)o3)C2)c(C)c(C(=O)N2CCC(N3CCC(N(C)S(C)(=O)=O)CC3)CC2)n1` [Example 159cc]: the affinity, expressed as Ki, was 0.01 µM.
Consider `Cc1c(NCc2ccc(F)c(F)c2)ncnc1C(=O)N1CCC(N2CCOCC2)CC1` [Example 48], for which the remaining activity at 10 µM was 26% and the affinity corresponds to a Ki of 1.78 µM.
The corresponding values for `Cc1c(NCc2ccc(C(C)(C)C)cc2)ncnc1C(=O)N1CCC(N2CCC[C@@H]2CC(=O)N(C)C)CC1` [Example 216] are 59% and 4.28 µM.
As for `Cc1c(NC[C@H]2C[C@@H](c3ccc(Cl)cc3)C2)ncnc1C(=O)N1CCC(N2CCC(N(C)S(C)(=O)=O)CC2)CC1` [Example 159wb], the Ki worked out at 0.016 µM.
Consider `Cc1c(NCCc2ccc(F)c(F)c2)ncnc1C(=O)N1CCC(N2CCC(O)CC2)CC1` [Example 115], for which the remaining activity at 10 µM came out at 33% and the Ki amounted to 0.847 µM.
Turning to `Cc1c(NCc2ccc(C(C)(C)C)cc2)ncnc1C(=O)N1CCCN(C(C)C)CC1` [Example 287], the remaining activity at 10 µM is 33% and the Ki was 2.55 µM.
Molecule `Cc1ccc([C@H]2CCC[C@@H](CNc3ncnc(C(=O)N4CCC(N5CCC(N(C)S(C)(=O)=O)CC5)CC4)c3C)C2)o1` [Example 159xb] had a Ki of 0.006 µM.
With `Cc1c(NCCc2ccc(Cl)c(Cl)c2)ncnc1C(=O)N1CCC(N2CCC(C(N)=O)CC2)CC1` [Example 172], the remaining activity at 10 µM is 28% and the Ki was found to be 0.736 µM.
Take `COc1ccc(CCNc2ncnc(C(=O)N3CCC(N4CCCCC4)CC3)c2C)cc1Cl` [Example 136]: the remaining activity at 10 µM came to 14% and the Ki came out at 0.773 µM.
Turning to `Cc1cc(CNc2ncnc(C(=O)N3CCC(N4CCC(O)CC4)CC3)c2C)ccc1F` [Example 118], the remaining activity at 10 µM turned out to be 41% and the Ki was determined as 2.16 µM.
`CNS(=O)(=O)C1CCN(C2CCN(C(=O)c3ncnc(NCc4ccc(C(C)(C)C)cc4)c3C)CC2)CC1` [Example 221]: the remaining activity at 10 µM was 12% and the inhibition constant (Ki) stood at 0.172 µM.
The corresponding values for `Cc1nc(NCc2ccc(Cl)c(Cl)c2)c(C)c(C(=O)N2CCC(N3CCC(O)CC3)CC2)n1` [Example 92] are 14% and 0.175 µM.
For `Cc1nc(NCc2ccc(C(F)(F)F)c(Cl)c2)c(C)c(C(=O)N2CCC(N3CCC(N(C)S(C)(=O)=O)CC3)CC2)n1` [Example 81] the same measures were 8% and 0.052 µM.
The corresponding values for `Cc1c(NCCc2ccc(Cl)c(Cl)c2)ncnc1C(=O)N1CCC(N2CC[C@@H](O)[C@@H](O)C2)CC1` [Example 246] are 2% and 0.306 µM.
In the case of `CO[C@@H]1CN(C2CCN(C(=O)c3ncnc(NCc4ccc(Cl)c(Cl)c4)c3C)CC2)CC[C@H]1NS(C)(=O)=O` [Example 191], the remaining activity at 10 µM was 20% and the affinity corresponds to a Ki of 0.519 µM.
As for `Cc1c(NCc2cccc(Cl)c2)ncnc1C(=O)N1CCC(N2CCCCC2)CC1` [Example 140], the remaining activity at 10 µM came to 16% and the affinity, expressed as Ki, was 0.692 µM.
The corresponding values for `Cc1c(NC[C@@H]2CCC[C@H](c3ccccc3)C2)ncnc1C(=O)N1CCC(N2CCC(O)CC2)CC1` [Example 145] are 17% and 0.181 µM.
The corresponding values for `CCc1c(NCCc2ccc(Cl)c(Cl)c2)ncnc1C(=O)N1CCC(N2CCC(O)CC2)CC1` [Example 280] are 32% and 1.44 µM.
In turn, `CO[C@@H]1COCC[C@@H]1NC1CCN(C(=O)c2ncnc(NC[C@@H]3CCC[C@H](c4ccc(C)o4)C3)c2C)CC1` [Example 275db] gave an inhibitory constant (Ki) of 0.033 µM.
On to `CNC(=O)[C@@H]1CCN(C2CCN(C(=O)c3ncnc(NCc4ccc(Cl)c(F)c4)c3C)CC2)C1` [Example 78], for which the remaining activity at 10 µM was 28% and the Ki worked out at 0.74 µM.
On to `CCOC1CCN(C2CCN(C(=O)c3ncnc(NCc4ccc(C(C)(C)C)cc4)c3C)CC2)CC1` [Example 198], for which the remaining activity at 10 µM is 1% and affinity was put at a Ki of 0.058 µM.
Take `Cc1c(NCC2CCCN(c3ccc(C(F)(F)F)cc3)C2)ncnc1C(=O)N1CCC(N2CCC(N(C)S(C)(=O)=O)CC2)CC1` (centres unmarked) [Example 159w]: the affinity, expressed as Ki, was 0.009 µM.
On the same count and under the same terms, as for `Cc1c(NCC2CCc3ccccc3O2)ncnc1C(=O)N1CCC(N2CCC(N(C)S(C)(=O)=O)CC2)CC1` (centres unmarked) [Example 159ob], the figure is 0.118 µM.
As for `Cc1c(NCc2ccc(C(F)(F)F)c(Cl)c2)ncnc1C(=O)N1CCC(N2CCC(NS(C)(=O)=O)CC2)CC1` [Example 75], the remaining activity at 10 µM is 7% and the affinity, expressed as Ki, was 0.067 µM.
For the molecule `Cc1c(NCc2ccc(C(C)(C)C)cc2)ncnc1C(=O)N1CCC(N2CCC(c3ccc(C#N)cc3)CC2)CC1` [Example 228gk], the affinity corresponds to a Ki of 0.044 µM.
Take `Cc1c(NC[C@@H]2CCC[C@@H](c3ccccc3)C2)ncnc1C(=O)N1CCC(N2CCC(O)CC2)CC1` [Example 144]: the remaining activity at 10 µM stood at 7% and the affinity corresponds to a Ki of 0.091 µM.
For the molecule `Cc1c(NCc2ccc(Cl)c(F)c2)ncnc1C(=O)N1CCC(N2CCC(NS(C)(=O)=O)CC2)CC1` [Example 76], the remaining activity at 10 µM is 12% and the Ki worked out at 0.132 µM.
For the molecule `Cc1c(NCCc2cn(C)c3ccccc23)ncnc1C(=O)N1CCC(N2CCC(N(C)S(C)(=O)=O)CC2)CC1` [Example 159y], the Ki was 0.169 µM.
Consider `Cc1c(NCCc2cccc(C(F)(F)F)c2)ncnc1C(=O)N1CCC(N2CCC(O)CC2)CC1` [Example 11], for which the remaining activity at 10 µM turned out to be 38% and the Ki was found to be 1.71 µM.
`Cc1cccc([C@H]2CC[C@H](CNc3ncnc(C(=O)N4CCC(N5CCC(N(C)S(C)(=O)=O)CC5)CC4)c3C)O2)c1` [Example 159ia] came in with a Ki of 0.017 µM.
Take `Cc1c(NCC2CCCCCC2)ncnc1C(=O)N1CCC(N2CCC(N(C)S(C)(=O)=O)CC2)CC1` [Example 159fa]: the affinity, expressed as Ki, was 0.035 µM.
Same read-out and setting: then `Cc1c(NC[C@H]2C[C@@H](c3ccccc3)C2)ncnc1C(=O)N1CCC(N2CCC(N(C)S(C)(=O)=O)CC2)CC1` [Example 159yb], with 0.015 µM.
As to `Cc1c(NCCc2ccc(Cl)c(Cl)c2)ncnc1C(=O)N1CCC(N2CCC[C@@H](O)C2)CC1` [Example 231], the remaining activity at 10 µM came to 15% and the Ki came out at 0.215 µM.
Turning to `Cc1c(C(=O)N2CCC(N3CCC(NS(C)(=O)=O)CC3)CC2)ccnc1NCc1ccc(Cl)c(Cl)c1` [Example 274], the remaining activity at 10 µM amounted to 48% and the affinity, expressed as Ki, was 4.42 µM.
On to `Cc1c(NCc2ccc(Cl)c(Cl)c2)ncnc1C(=O)N1CCC(N2CCCCCC2)CC1` [Example 235], for which the remaining activity at 10 µM was 26% and the affinity, expressed as Ki, was 0.46 µM.
For `Cc1c(NCc2ccc(C(C)(C)C)cc2)ncnc1C(=O)N1CCC(N2CCC(NS(C)(=O)=O)CC2)CC1` [Example 69] the same measures were 7% and 0.063 µM.
For `Cc1c(NCc2ccc(Cl)cc2)ncnc1C(=O)N1CCC(N2CCCCC2)CC1` [Example 127] the same measures were 35% and 0.665 µM.
As to `Cc1c(N[C@@H]2CCc3ccccc3C2)ncnc1C(=O)N1CCC(N2CCC(O)CC2)CC1` [Example 25], the remaining activity at 10 µM worked out at 47% and the Ki worked out at 2.41 µM.
The corresponding values for `CO[C@@H]1CCN(C2CCN(C(=O)c3ncnc(NCc4ccc(C(C)(C)C)cc4)c3C)CC2)C1` [Example 219] are 22% and 0.476 µM.
For `Cc1c(NCc2cccc(-c3ccccc3)c2)ncnc1C(=O)N1CCC(N2CCC(N(C)C)CC2)CC1` [Example 236] the same measures were 14% and 0.175 µM.
For `COC1CCN(C2CCN(C(=O)c3ncnc(NCc4ccc(C(C)(C)C)cc4)c3C)CC2)CC1` [Example 208] the same measures were 7% and 0.099 µM.
